Assay results as given in patent US20210309652A1, “ISOXAZOLINE COMPOUNDS FOR CONTROLLING INVERTEBRATE PESTS” (priority 2018, published 2021).

How the values were obtained:
Type in all cases: in vivo
[1] = test system: potato leafhopper (Empoasca fabae (Harris)); assay: Test C: control of potato leafhopper on Soleil bean plant, contact and/or systemic; conditions: 144 h
Experimental: (§1) Test Compounds were formulated using a solution containing 10% acetone, 90% water and 300 ppm Activator 90® non-ionic surfactant (Loveland Products, Loveland, Colo., USA). The formulated Compounds were applied in 1 mL of liquid through an atomizer nozzle positioned 1.27 cm (0.5 inches) above the top of each test unit. Test Compounds were sprayed at the rates indicated, and each test was replicated three times.
For evaluating control of potato leafhopper (Empoasca fabae (Harris)) through contact and/or systemic means, the test unit consisted of a small open container with a 5-6-day-old Soleil bean plant (primary leaves emerged) inside. White sand was added to the top of the soil, and one of the primary leaves was excised prior to application of the test Compound.
Test Compounds were formulated and sprayed at 250, 50 and 10 ppm. After spraying of the formulated test Compound, the test units were allowed to dry for 1 hour before they were post-infested with 5 potato leafhoppers (18-to-21-day-old adults). A black, screened cap was placed on the top of the test unit, and the test units were held for 6 days in a growth chamber at 20° C. and 70% relative humidity. Each test unit was then visually assessed for insect mortality.

[2] = test system: green peach aphid (Myzus persicae (Sulzer)); assay: Test D: control of green peach aphid on radish plant, contact and/or systemic; conditions: 144 h
Experimental: as §1
For evaluating control of green peach aphid (Myzus persicae (Sulzer)) through contact and/or systemic means, the test unit consisted of a small open container with a 12-15-day-old radish plant inside. This was pre-infested by placing on a leaf of the test plant 30-40 aphids on a piece of leaf excised from a culture plant (cut-leaf method). The aphids moved onto the test plant as the leaf piece desiccated. After pre-infestation, the soil of the test unit was covered with a layer of sand.
Test Compounds were formulated and sprayed at 250 and 50 ppm. After spraying of the formulated test Compound, each test unit was allowed to dry for 1 hour and then a black, screened cap was placed on top. The test units were held for 6 days in a growth chamber at 19-21° C. and 50-70% relative humidity. Each test unit was then visually assessed for insect mortality.

[3] = test system: cotton melon aphid (Aphis gossypii (Glover)); assay: Test E: control of cotton melon aphid on okra plant, contact and/or systemic; conditions: 144 h
Experimental: as §1
For evaluating control of cotton melon aphid (Aphis gossypii (Glover)) through contact and/or systemic means, the test unit consisted of a small open container with a 5-day-old okra plant inside. This was pre-infested with 30-40 insects on a piece of leaf according to the cut-leaf method, and the soil of the test unit was covered with a layer of sand.
Test Compounds were formulated and sprayed at 250, 50 and 10 ppm. After spraying, the test units were maintained in a growth chamber for 6 days at 19° C. and 70% relative humidity. Each test unit was then visually assessed for insect mortality.

[4] = test system: beet army worm [Spodoptera exigua (Hübner)]; assay: Test H: control of beet armyworm on treated soybean leaf pieces; conditions: 96 h
Experimental: (§2) For evaluating control of beet army worm [Spodoptera exigua (Hübner)], corn earworm [Helicoverpa zea (Boddie)], and cabbage looper [Trichoplusia ni (Hübner)], the test unit consisted of 4-inch diameter pots with 3-4 week old soybean (for S. exigua) or cotton (for H. zea and T. ni) plants inside. Plants were treated with test Compound sprayed to runoff using a hand-held spray nozzle. Test Compounds were formulated and sprayed at 5 rates. Treated plants dried for 1 hour. Leaves of treated plants were cut into pieces (approximately 4×3 cm), and pieces were placed in cells of plastic trays that each contained agar to maintain humidity. Each cell was infested with a single second-instar larva which represented a separate replicate. Each rate was represented by 16-24 larvae. Cells were sealed with lids. Trays were held for 4 days in a growth chamber with a 16:8-hour (Light:Dark) cycle at 25° C. and 70% relative humidity.
(§3) Treatments were evaluated by counting the number of live and dead larvae and by visually estimating the percentage of feeding on plant material using a 0-10 rating scale, corresponding to 10% increases from 0-100% feeding.

[5] = test system: corn earworm [Helicoverpa zea (Boddie)]; assay: Test H: control of corn earworm on treated cotton leaf pieces; conditions: 96 h
Experimental: as §2, §3

[6] = test system: cabbage looper [Trichoplusia ni (Hübner)]; assay: Test H: control of cabbage looper on treated cotton leaf pieces; conditions: 96 h
Experimental: as §2, §3

[7] = test system: Western Flower Thrips (Frankliniella occidentalis (Pergande)); assay: Test G: control of Western Flower Thrips on Soleil bean plant, contact and/or systemic; conditions: sprayed at 10 ppm; 6 days
Experimental: as §1
For evaluating control of the Western Flower Thrips (Frankliniella occidentalis (Pergande)) through contact and/or systemic means, the test unit consisted of a small open container with a 5-7-day-old Soleil bean plant inside.
Test Compounds were formulated and sprayed at 250, 50, 10 and 2 ppm. After spraying, the test units were allowed to dry for 1 hour, and then ˜60 thrips (adults and nymphs) were added to each unit. A black, screened cap was placed on top, and the test units were held for 6 days at 25° C. and 45-55% relative humidity. Each test unit was then visually assessed for plant damage and insect mortality.

Compound | mortality at 10 ppm [1] [%] | mortality at 10 ppm [2] [%] | mortality at 10 ppm [3] [%] | mortality at 1 ppm [4] [%] | mortality at 1 ppm [5] [%] | mortality at 10 ppm [4] [%] | mortality at 10 ppm [5] [%] | further results
CC(=O)NCc1ccc(C2=NOC(c3cc(Cl)c(F)c(Cl)c3)(C(F)(F)F)C2)c2ccoc12 (centres unmarked) [Compound 83, N-[[4-[5-(3,5-dichloro-4-fluorophenyl)-4,5-dihydro-5-(trifluoromethyl)-3-isoxazolyl]-7-benzofuranyl]methyl]acetamide] | ≥ 80 | ≥ 80 | ≥ 80 | ≥ 80 | ≥ 80 |  |  | 
C[C@H](NC(=O)c1ccc(C2=NOC(c3cc(Cl)cc(Cl)c3)(C(F)(F)F)C2)c2sccc12)C(N)=O (stereo partly drawn) [Compound 101, N-[(1S)-2-amino-1-methyl-2-oxo-ethyl]-7-[5-(3,5-dichlorophenyl)-5-(trifluoromethyl)-4H-isoxazol-3-yl]benzothiophene-4-carboxamide] | ≥ 80 |  |  | ≥ 80 | ≥ 80 | ≥ 80 | ≥ 80 | mortality at 1 ppm [6]: ≥ 80%; mortality at 10 ppm [6]: ≥ 80%
O=C(NC1C[S+]([O-])C1)c1ccc(C2=NOC(c3cc(Cl)c(F)c(Cl)c3)(C(F)(F)F)C2)c2ccoc12 (single isomer, unassigned) [Compound 57, 4-(5-(3,5-dichloro-4-fluorophenyl)-5-(trifluoromethyl)-4,5-dihydroisoxazol-3-yl)-N-(1-oxidothietan-3-yl)benzofuran-7-carboxamide] | ≥ 80 | ≥ 80 | ≥ 80 | ≥ 80 | ≥ 80 | ≥ 80 | ≥ 80 | 
O=C(NCc1ncccn1)c1ccc(C2=NOC(c3cc(Cl)c(F)c(Cl)c3)(C(F)(F)F)C2)c2ccsc12 (centres unmarked) [Compound 20, 4-[5-(3,5-dichloro-4-fluorophenyl)-4,5-dihydro-5-(trifluoromethyl)-3-isoxazolyl]-N-(2-pyrimidinylmethyl)benzo[b]thiophene-7-carboxamide] | ≥ 80 |  |  |  |  |  |  | mortality at 50 ppm [1]: ≥ 80%; mortality at 50 ppm [2]: ≥ 80%; mortality at 50 ppm [3]: ≥ 80%
CC(=O)NCc1ccc(C2=NOC(c3cc(Cl)cc(Cl)c3)(C(F)(F)F)C2)c2ccoc12 (centres unmarked) [Compound 79, N-[[4-[5-(3,5-dichlorophenyl)-5-(trifluoromethyl)-4H-1,2-oxazol-3-yl]-1-benzofuran-7-yl]methyl]acetamide] | ≥ 80 |  | ≥ 80 |  | ≥ 80 |  |  | 
O=C(NC1CSC1)c1ccc(C2=NOC(c3cc(Cl)c(F)c(Cl)c3)(C(F)(F)F)C2)c2ccoc12 (centres unmarked) [Compound 55, 4-(5-(3,5-dichloro-4-fluorophenyl)-5-(trifluoromethyl)-4,5-dihydroisoxazol-3-yl)-N-(thietan-3-yl)benzofuran-7-carboxamide] | ≥ 80 | ≥ 80 | ≥ 80 |  |  |  |  | 
O=C(NC1CS(=O)(=O)C1)c1ccc(C2=NOC(c3cc(Cl)c(F)c(Cl)c3)(C(F)(F)F)C2)c2ccoc12 (centres unmarked) [Compound 56, 4-[5-(3,5-dichloro-4-fluorophenyl)-4,5-dihydro-5-(trifluoromethyl)-3-isoxazolyl]-N-(1,1-dioxido-3-thietanyl)-7-benzofurancarboxamide] | ≥ 80 |  |  | ≥ 80 | ≥ 80 | ≥ 80 | ≥ 80 | 
CSCCNC(=O)c1ccc(C2=NOC(c3cc(Cl)c(F)c(Cl)c3)(C(F)(F)F)C2)c2ccoc12 (centres unmarked) [Compound 1] |  |  |  |  |  |  |  | control efficacy: plant damage (30% or less plant damage and/or 100% mortality) [7]: ≤ 30%
